Each block holds one molecule with its values, some of them ahead of it. No end group written: not given here.
Columns and labels:
[1] = target: T1, CobB (Escherichia coli, UniProt P75960); experiment: ESI-MS of V3 expressed in E. coli with NAM (CobB deacylation); format: cell-based
T1 construct: endogenous in cells; host or cells: E. coli DH10B
Procedure: Since nicotinamide (NAM) is a known inhibitor of the sirtuin family of enzymes, I expressed V3 in the presence of 20 mM NAM.
However, the V3 protein expression level was severely attenuated in the presence of 20 mM NAM (data not shown). Therefore, I attempted several lower NAM concentrations and assessed the purified V3 protein using ESI-MS. […] Thus, 10 mM NAM was added to the culture medium for the subsequent expression of V3 in E. coli.
DH10B cells harboring pEVOL-KfuRS and pBad-V3-2 plasmid were cultured in LB plus corresponding antibiotics. Protein expression was induced by adding 0.2% arabinose, 10 mM NAM, and 1 mM Kfu when O.D. 600 reached 0.4. After expression at 37° C. for 20 h, cells were harvested and washed with PBS. Protein purification was the same as sfGFP150Kfu except that 10 mM NAM was added to lysis buffer to prevent CobB deacylation. V3C was expressed and purified the same as V3.

[2] = test system: AF9 protein; experiment: FRAP of AF9-sfGFP in HEK 293T cells (chromatin binding of AF9); format: cell-based, human
Description: In one embodiment, fluorescence recovery after photobleaching (FRAP) may be used to analyze diffusion and binding of proteins in living cells. It has also been used to assess the cellular efficiency of bromodomain inhibitors in living cells.
In the FRAP experiments, the protein of interest is genetically tagged with a fluorescent protein (e.g., GFP) and expressed inside the cell. Then a portion of the fluorescent-tagged protein are photobleached by an intense laser pulse, and the fluorescence recovery of that photobleached region, which is caused by the migration of fluorescent-tagged proteins back into the bleached area, is monitored over time (FIG. 27a). A fluorescence recovery curve can be generated by plotting the fluorescence intensity with time, and the half time (t1/2), which is the time that the fluorescence intensity takes to recover to half, could also be calculated (FIG. 27b).
Since AF9 protein was reported to associate with chromatin by its YEATS domain, we reasoned that the V3 inhibitor would reduce the binding of AF9 to chromatin and increase its mobility. To test this hypothesis, I fused sfGFP to the C-terminal of AF9 protein and replaced the C-terminal sfGFP of V3-NLS and V3C-NLS to a red fluorescence mCherry protein to avoid fluorescence overlap in FRAP experiments. […]
HEK 293T cells were seeded in 3.5 cm confocal dish at a density of 4-6×10^5 cells per well in 2 mL complete growth medium and let them reach 60-80% confluency at the time of transfection. […] An argon laser (488 nm) was used for photobleaching and fluorescence imaging of sfGFP. The detector was set to detect fluorescence between 500 and 550 nm. […] Fluorescence recovery of sfGFP was monitored by a time series imaging.
The average fluorescence intensity was measured for three regions at each imaging time point, a bleached region (Fbl), a non-bleached reference region (Fref) to correct for the FRAP curve for photofading caused by imaging, the location of reference region should be as far apart as possible from the bleached region. […]

[3] = target: AF9 YEATS domain (human) (UniProt P42568); experiment: ITC, 25° C., 300 µM V3 titrated into 30 µM AF9 YEATS domain
[4] = target: T2, AF9 YEATS domain (Homo sapiens, UniProt P42568); experiment: Isothermal titration calorimetry (ITC) with AF9 YEATS domain; format: binding; details: 25° C.
T2 sequence (P42568 1-138 limits assumed): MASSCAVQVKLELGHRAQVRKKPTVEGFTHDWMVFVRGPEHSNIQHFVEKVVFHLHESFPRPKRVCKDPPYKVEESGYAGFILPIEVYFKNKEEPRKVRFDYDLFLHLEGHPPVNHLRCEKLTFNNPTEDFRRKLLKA
Procedure: Next, I tested whether V3 protein could bind to the YEATS domains and act as a YEATS domain inhibitor. Isothermal titration calorimetry (ITC) was performed to determine the dissociation constant (Kd) between V3 and all four YEATS domain-containing proteins in humans (i.e. AF9, ENL, Gas41, and YEATS2).
ITC was first performed with V3 protein and the AF9 YEATS domain.
Experiments were conducted at 25° C. on a MicroCal PEAQ-ITC titration calorimeter (MicroCal). The buffer for the titration is (150 mM NaCl, 50 mM HEPES, 1 mM TCEP, pH 7.5). Proteins were dialyzed to the titration buffer for overnight before the experiment. The reaction cell contained 200 μL of 30 μM YEATS domain proteins, which was titrated with 300 μM V3 or V3C proteins (10-fold higher than the YEATS domain protein concentration used). The titration contained 20 injections, first 0.5 μL, and all subsequent injections of 2 μL. The binding isotherm was fit with MicroCal PEAQ-ITC analysis software, using a single set of independent sites to determine the thermodynamic dissociation constants and stoichiometry.

[5] = target: T3, V3-GAL4/AF9-VP64 complex (Homo sapiens, UniProt P42568); experiment: Luciferase-based two-hybrid assay (V3-GAL4 bait, AF9-VP64 prey); format: cell-based; details: V3-GAL4 bait with AF9-VP64 prey, normalized to V3C-GAL4
T3 construct: expressed in transfected cells; host or cells: HEK 293T
T3 sequence (P42568 1-568): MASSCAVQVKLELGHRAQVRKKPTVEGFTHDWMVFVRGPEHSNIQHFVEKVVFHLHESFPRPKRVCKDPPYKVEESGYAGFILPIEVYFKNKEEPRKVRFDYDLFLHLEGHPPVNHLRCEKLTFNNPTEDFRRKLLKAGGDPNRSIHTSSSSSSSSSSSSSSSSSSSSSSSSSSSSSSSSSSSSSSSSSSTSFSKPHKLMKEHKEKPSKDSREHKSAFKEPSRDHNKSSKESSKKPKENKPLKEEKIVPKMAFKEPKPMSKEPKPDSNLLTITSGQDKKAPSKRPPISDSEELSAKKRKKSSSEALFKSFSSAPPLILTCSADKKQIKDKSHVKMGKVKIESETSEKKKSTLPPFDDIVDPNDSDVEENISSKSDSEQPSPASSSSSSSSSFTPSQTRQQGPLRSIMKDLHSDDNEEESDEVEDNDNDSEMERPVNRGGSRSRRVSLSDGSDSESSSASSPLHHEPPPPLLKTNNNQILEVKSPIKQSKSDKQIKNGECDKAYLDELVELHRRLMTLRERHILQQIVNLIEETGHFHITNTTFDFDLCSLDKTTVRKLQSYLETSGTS
Procedure: FIG. 34A-34D Luciferase-based two hybrid assay. (A) Schematic of the Luciferase-based two hybrid assay. (B) Schematic showing V3-GAL4 and V3C-GAL4 fusion proteins. (C) Immunoblotting analysis the expression of V3-GAL4 and V3C-GAL4 in the presence or absence of 1 mM Kfu in HEK 293T cells. (D) Relative luciferase signal of V3-GAL4 or V3C-GAL4 ‘bait’ in the presence of AF9-VP64 ‘prey’ protein, and with the addition of different concentrations of iMLLT. The luminescence of all the samples was normalized to the V3C-GAL4 sample. Error bars represent SEM from three biological replicates.
To solve the problems in current cell-based methods, as well as develop a robust cell-based technology for the in vivo screening and validation of YEATS domain inhibitors. We sought out to take advantage of the well-developed luciferase-based two-hybrid assay. In the two-hybrid assay, the genetically encoded YEATS domain probe was fused with a GAL4 DNA binding domain and served as ‘bait’, while a transcription activation domain (VP64) was linked to AF9 protein and acted as ‘prey’ (FIG. 34a, b, c). […]

T1 sequence (P75960 whole entry): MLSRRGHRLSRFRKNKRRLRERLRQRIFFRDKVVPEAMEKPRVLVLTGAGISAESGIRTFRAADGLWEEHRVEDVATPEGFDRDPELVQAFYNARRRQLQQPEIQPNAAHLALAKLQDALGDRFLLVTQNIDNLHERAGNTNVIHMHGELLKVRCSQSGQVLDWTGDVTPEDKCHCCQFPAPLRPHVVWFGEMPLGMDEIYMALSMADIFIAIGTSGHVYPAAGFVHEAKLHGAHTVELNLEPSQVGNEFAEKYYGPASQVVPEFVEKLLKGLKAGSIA

Molecule: NC(=O)c1cccnc1 [NAM, nicotinamide]
inhibition of the deacylation activity of CobB ([1]; 10 mM NAM): sufficient to inhibit
inhibition of the deacylation activity of CobB ([1]; 20 mM NAM): completely inhibits

Molecule: O=C(CCCCCCC(=O)Nc1ccccc1)NO [SAHA, suberoylanilide hydroxamic acid]
half recovery time (t1/2) of AF9-sfGFP ([2]; SAHA 2.5 μM for 18 hours before FRAP, untreated 2.5±0.1 seconds): 4.7 ± 0.2 s
final fluorescence (fluorescence at plateau), of the initial intensity ([2]; SAHA-treated cells, untreated 90%): 75%

Molecule: V3 protein (genetically encoded YEATS domain inhibitor V3; histone H3 (4-13) with 2-furancarbonyl lysine at K9 fused to sfGFP and 6×His tag) (designed binder)
Kd [3]: 2350 nM

Molecule: V3-NLS (mCherry): V3-NLS with C-terminal sfGFP replaced by red fluorescence mCherry protein (KQTARKSTGGHHHHHHKRPAATKKAGQAKKKKL; also: C-terminal mCherry fusion (carrier not in chain))
half recovery time (t1/2) of AF9-sfGFP ([2]; inhibitor co-expressed, 2.5 μM SAHA added to all groups, no inhibitor control 4.7±0.2 s): 3.1 ± 0.2 s

Next, values leading:

dissociation constant (Kd) [4]: no detectable binding
Molecule: V3C: control inhibitor: H3 (4-13) with a normal lysine at the H3 K9 site fused to N-terminal of sfGFP (KQTARKSTGG; also: C-terminus fused to sfGFP)

activation level of luciferase [5]: around 20 folds
B1: V3-GAL4: genetically encoded YEATS domain probe fused with a GAL4 DNA binding domain, 'bait' (protein)
chain: KQTARKSTGGMKLLSSIEQACDICRLKKLKCSKEKPKCAKCLKNNWECRYSPKTKRSPLTRAHLTEVESRLERLEQLFLLIFPREDLDMILKMDSLQDIKALLTGLFVQDNVNKDAVTDRLASVETDMPLTLRQHRISATSSSEESSNKGQRQLTVS

Source: patent publication US20230272370A1, “GENETICALLY ENCODED YEATS DOMAIN PROBE AND APPLICATIONS THEREOF” (THE UNIVERSITY OF HONG KONG, priority 2020, published 2023)
